Test results: PubChem BioAssay AID179 (DTP/NCI, 2004)
The source made the active and inactive calls.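 Rule for the calls: active = compounds giving half or more protection of infected cells from virus-caused growth loss, again on retest; inactive = the rest.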

Test system: CEM cells HIV-1 protection, formazan growth assay
Experiment: NCI AIDS Antiviral Assay
Details: for IC50: measured here: growth of uninfected CEM cells
Outline: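 CEM (human) cells, HIV-1 infected vs uninfected, 5-point dosing, formazan growth read-out. Retest threshold 50% protection.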

| Structure (SMILES) | EC50 [µM] | IC50 [µM] | outcome |
| --- | --- | --- | --- |
| O=C(OCCNC(=O)N1CCOCC1)OCCNC(=O)N1CCOCC1 | > 200 | > 200 |  |
| COC(=O)CCC(NC(=O)OC(C)(C)C)C(=O)NC(Cc1ccc(NC(=O)CCCC(C)=O)cc1)C(=O)NC(CCC(=O)OC)C(=O)OC (configuration not stated) | > 100 | > 100 |  |
| COC1=Nc2ccccc2S(=O)(=O)C=C1 | > 398 | 0.813 |  |
| Cc1nc(N)c(-c2ccccc2)s1 | > 135 | > 135 |  |
| CCOC(=O)C1(C(=O)OCC)CSC1 | > 309 | > 309 |  |
| CO/C(=N\N=C\c1cccc(C(F)(F)F)c1)c1ccncc1 | > 117 | 12.6 |  |
| CC(=O)Oc1cc2c(n(C)c1=O)CCC2 | > 200 | 155 |  |
| COC(=O)/C=C(/CNC(=O)OCc1ccccc1)c1ccccc1 |  |  | inactive |
| CCOc1ccc(/C=C(\Cl)c2ccc(OC)c(OC)c2)cc1 | > 200 | 191 |  |
| COc1cccc(C2CCCC(C#N)C2=N)c1OC (configuration not stated) | > 200 | 126 |  |
| CN1CCCOC(c2ccc([N+](=O)[O-])cc2)O1 (configuration not stated) | > 200 | > 200 |  |
| N#C/C(=C/N1C(=O)CC(=O)NC1=S)c1cccc(Cl)c1 | 182 | > 200 |  |
| CC(=O)NNC(=S)N/C=C(\C#N)c1nc2ccccc2s1 | > 200 | > 200 |  |
| CCc1c2c([nH]c(=S)c1C#N)CCC2 | 61.7 | > 200 |  |
| Cc1cc(C2(c3cc(C)c(O)cc3C)OS(=O)(=O)c3ccccc32)c(C)cc1O |  |  | inactive |
| NCCSSC/C=C\CSSCCN |  |  | inactive |
| CC1CCCC(C)N1Cc1cccnc1 (configuration not stated) |  |  | inactive |
| CC1CC(C)(C)N/C(=C/C(=O)N2Cc3cc4ccccc4nc3C2)O1 (configuration not stated) | > 200 | > 200 |  |
| CCCCCCCCCCCCCCCCCCNC(=S)/N=C\C1=C(O)c2ccccc2C1=O | > 200 | 36.3 |  |
| COC(=N)C12C(N)=NC(OC)(OC)C1(C#N)C21C(=O)N(c2ccccc2)N=C1C (configuration not stated) | > 200 | 97.7 |  |
| C=C=C(Sc1ccccc1)C(C)(C)OC(C)=O | > 50.1 | 14.5 |  |

| Structure (SMILES) | EC50 [µM] | IC50 [µM] | outcome |
| --- | --- | --- | --- |
| N#CNc1nc(N)c(-c2ccc(Cl)cc2)c(C(=O)Nc2ccc(Cl)c(Cl)c2)n1 |  |  | inactive |
| O=C(Nc1c(NCC(O)C(O)C(O)CO)[nH]c(=O)[nH]c1=O)c1ccc(S(=O)(=O)F)cc1 (configuration not stated) | > 200 | 117 |  |
| Cc1[nH]n(C2=NCCN2)c(=O)c1Cc1ccccc1 | > 200 | > 200 |  |
| CC(=O)c1c(O)c2c(c(C(C)=O)c1O)OC(C)(C)C=C2 | > 9.55 | > 9.55 |  |
| CCOC(=O)c1ccc(CSc2ccc(N)cc2)c([N+](=O)[O-])c1 | > 40.7 | > 40.7 |  |
| Cc1n[nH]c(=O)c2cc3oc4ccccc4c3n12 | > 107 | 32.4 |  |
| C(/C=C/c1ccccc1)=Nc1ccc(SSc2ccc(N=C/C=C/c3ccccc3)cc2)cc1 | > 200 | 16.6 |  |
| CCN(CC)CCN(C(=O)C(C)(C)C)c1ccccc1N | > 200 | > 200 |  |
| COc1ccc(N2C(=O)CSC2c2c[nH]c3ccccc23)cc1 (configuration not stated) | > 22.4 | > 22.4 |  |
| S=c1[nH]c(=S)c2sc(=S)n(-c3ccccc3)c2[nH]1 | > 115 | 56.2 |  |
| Cc1cc2nc3c(C(O)C(O)C(O)CO)nn(-c4ccc(F)cc4)c3nc2cc1C (configuration not stated) | 89.1 | > 200 |  |
| CC(C)(C)OC(=O)C1C(=O)C(C(=O)OC(C)(C)C)C23CCCCC12C(C(=O)OC(C)(C)C)C(=O)C3C(=O)OC(C)(C)C (configuration not stated) | > 30.2 | > 30.2 |  |
| O=C(CN1CCOCC1)c1ccc2[nH]c(=O)oc2c1 | > 200 | 155 |  |
| CCC(C)SC1SCC2C(=O)N(C)C3(CC3C)C(=O)OCC(NC(=O)c3nc4ccccc4cc3O)C(=O)NC(C)C(=O)N(C)C1C(=O)N(C)C1(CC1C)C(=O)OCC(NC(=O)c1nc3ccccc3cc1O)C(=O)NC(C)C(=O)N2C (configuration not stated) | > 0.02 | 8.71e-05 |  |
| COC(=O)C1CC(C(=O)OC)c2nc3cc([N+](=O)[O-])ccc3nc21 (configuration not stated) | > 151 | 61.7 |  |
| [N-]=[N+]=C(C(=O)C(=[N+]=[N-])C(=O)c1ccccc1)C(=O)c1ccccc1 | > 112 | > 112 |  |
| CC1(C)OC[C@@H](O)[C@H](C#N)CO1 | > 200 | > 200 |  |
| COc1ccc(NC(=O)/C(=N\NC(=O)C[n+]2ccccc2)c2c(O)c3ccc(O)cc3oc2=O)c([N+](=O)[O-])c1 | > 437 | 72.4 |  |
| O=C(NC1C=Nc2ccc(Cl)cc2NC1=O)c1ccccc1Cl (configuration not stated) | > 200 | 123 |  |
| C=CO/N=[N+](\[O-])N(CC)CC | > 200 | > 200 |  |
| CCC(=O)CCCC=C(c1cc(Cl)c(OC)c(CO)c1)c1cc(Cl)c(OC)c(CO)c1 | > 200 | 14.1 |  |

| Structure (SMILES) | EC50 [µM] | IC50 [µM] | outcome |
| --- | --- | --- | --- |
| Cc1ccc(Nc2nc3c(=O)n(C)c(=O)n(C)c3nc2Nc2ccc(C)cc2)cc1 | > 200 | 2.04 |  |
| COc1ccc(/C=C(\NC(=O)c2ccccc2)C(=O)NN(C)c2ccnc3cc(Cl)ccc23)cc1OC | > 200 | 56.2 |  |
| Cc1cc2occ(-c3ccc(Cl)cc3)c2c(=O)o1 | > 20 | > 20 |  |
| CCOC(=O)/C(=C\c1ccc(C(=O)OC)cc1)[Se]c1ccccc1 | > 66.1 | 61.7 |  |
| c1ccc(CN2C3C4N(Cc5ccccc5)C2C2N(Cc5ccccc5)C(C(N2Cc2ccccc2)N4Cc2ccccc2)N3Cc2ccccc2)cc1 | > 100 | > 100 |  |
| CCOC(=O)NC(C(C(=O)OCC)C(=O)OCC)(C(F)(F)F)C(F)(F)F | > 200 | > 200 |  |
| COC(=O)/C(C#N)=C1\N=NNN1CCCc1ccccc1 |  |  | inactive |
| CCN(CC)C(=O)c1c2nc3c(C(=O)N(CC)CC)ccc(C)c3oc-2c(C)c(=O)c1N | > 200 | 83.2 |  |
| COc1cc2c(cc1O)C1Cc3cc(OC)c(OC)cc3C(C2)N1C (configuration not stated) | > 39.8 | > 39.8 |  |
| Cc1ccc(SC[C@@]2(C(F)F)NC(=O)NC2=O)cc1 | > 200 | > 200 |  |
| COc1ccc(CNc2cnc3cc(N)ccc3n2)cc1OC | > 115 | > 115 |  |
| Fc1ccc2nncc(SCc3ccccc3)c2c1 | > 132 | 19.5 |  |
| COc1ccc(CN2C(=S)SC(c3ccc(Cl)cc3)N2c2ccc(OC)cc2)cc1 (configuration not stated) | > 200 | > 200 |  |
| O=C(O)C12CCC(CC1=O)C2 (configuration not stated) | > 200 | > 200 |  |
| O=C1NC(=O)[C@@H](OCC2CCCCC2)[C@@H]2OCC3OC(C(O)C3O)C12 (some centres not stated) | > 200 | > 200 |  |
| S=c1sc2nc(Cl)nc(Cl)c2s1 | > 200 | 13.2 |  |
| O=c1oc(-c2ccccc2NS(=O)(=O)c2ccccc2)nc2cc(Cl)ccc12 | > 200 | 1.45 |  |
| OC(C#CCN1CCCC1)(c1ccccc1)c1ccc(Br)cc1.[C-]#[O+].[C-]#[O+].[C-]#[O+].[C-]#[O+].[C-]#[O+].[C-]#[O+].[Co].[Co] (configuration not stated) | > 200 | 7.08 |  |
| COc1cc2c(cc1O)CN1CCC23C=C[C@@H](O)CC13 (some centres not stated) | > 912 | 38.9 |  |
| Cc1cc2c(=O)cc(-c3ccc(Cl)c(Cl)c3)oc2c(C(=O)O)c1C |  |  | inactive |
